Measurements: patent publication US20240016777A1, “COMPOUNDS AND METHODS FOR TREATING VIRAL INFECTIONS” (priority 2020, published 2024)

What follows are compounds tested against SARS-CoV-2 M^pro (Severe acute respiratory syndrome coronavirus 2 (2019-nCoV) (SARS-CoV-2), UniProt P0DTD1) (assay: biochemical). Details: not given.

Row | SMILES | Mpro inhibitory activity (comparison in words)
1 | COc1cc(O)c2c(=O)cc(-c3ccc(OC)c(-c4c(O)cc(O)c5c(=O)cc(-c6ccc(O)cc6)oc45)c3)oc2c1 [Ginkgetin] | comparable to amentoflavone
2 | O=C1CC(c2ccccc2)Oc2cc(O)cc(O)c21 (centres unmarked) [Pinocembrin] | relatively poor inhibition

Same assay, conditions: compound at 17 μM, duplicates, 20 min pre-incubation; read-out: Activity (% enzyme activity by fluorescence relative to initial enzyme activity)

Row | SMILES | remaining activity at 17 µM [%]
3 | COc1cc(O)c2c(c1CC=C(C)C)O[C@H](c1cc(CC=C(C)C)c(O)cc1O)CC2=O [Maackiaflavanone] | < 10
4 | CC(C)=CCc1c(O)cc(O)c2c(=O)cc(-c3ccc(O)cc3)oc12 [Licoflavone C] | > 80
5 | C=C(C)[C@H](CC=C(C)C)Cc1c(O)cc(O)c2c(=O)c(O)c(-c3ccc(O)cc3O)oc12 [Kushenol C] | 10 to 80
6 | CC(C)=CCc1c2c(c(O)c3c(=O)c(-c4ccc(O)c(O)c4)coc13)CC(C(C)(C)O)O2 (centres unmarked) [furowanin A] | 10 to 80
7 | CC(C)=CCc1cc([C@@H]2CC(=O)c3c(O)cc(O)c(CC=C(C)C)c3O2)c(O)cc1O [Euchrestaflavanone B] | 10 to 80
8 | CC(C)=CCc1c(O)ccc(-c2coc3cc(O)cc(O)c3c2=O)c1O [Licoisoflavone A] | > 80
9 | CC(C)=CCCC1=C[C@@H](c2c(O)cc3oc(-c4ccc(O)cc4O)cc(=O)c3c2O)[C@H](C(=O)c2ccc(O)cc2O)[C@@H](c2ccc(O)cc2O)C1 [Multicaulisin] | < 10
10 | CC(C)=CCC/C(C)=C\Cc1c(O)cc(O)c2c1O[C@H](c1ccc(O)cc1O)CC2=O [sophoraflavanone C] | 10 to 80
11 | O=c1c(O)c(-c2ccc(O[C@@H]3O[C@H](CO)[C@@H](O)[C@H](O)[C@H]3O)cc2)oc2cc(O)cc(O)c12 [Kaempferol-4′-O-beta-D-glucopyranoside] | 10 to 80
12 | CC(C)=CCc1c2c(c3occ(-c4ccc(O)cc4)c(=O)c3c1O)C=CC(C)(C)O2 [Osajin] | > 80

Same assay, conditions: compounds evaluated at 0.015-300 μM; read-out: IC50

Row | SMILES | IC50 [µM]
13 | COc1cc(O)c2c(c1CC=C(C)C)O[C@H](c1cc(CC=C(C)C)c(O)cc1O)CC2=O [Maackiaflavanone] | 3
14 | CC(C)=CCc1c2c(c(O)c3c(=O)c(-c4ccc(O)c(O)c4)coc13)CC(C(C)(C)O)O2 (centres unmarked) [furowanin A] | 7
15 | CC(C)=CCc1cc([C@@H]2CC(=O)c3c(O)cc(O)c(CC=C(C)C)c3O2)c(O)cc1O [Euchrestaflavanone B] | 96
16 | CC(C)=CCCC1=C[C@@H](c2c(O)cc3oc(-c4ccc(O)cc4O)cc(=O)c3c2O)[C@H](C(=O)c2ccc(O)cc2O)[C@@H](c2ccc(O)cc2O)C1 [Multicaulisin] | 17
17 | CC(C)=CCC/C(C)=C\Cc1c(O)cc(O)c2c1O[C@H](c1ccc(O)cc1O)CC2=O [sophoraflavanone C] | 63
18 | O=c1c(O)c(-c2ccc(O[C@@H]3O[C@H](CO)[C@@H](O)[C@H](O)[C@H]3O)cc2)oc2cc(O)cc(O)c12 [Kaempferol-4′-O-beta-D-glucopyranoside] | 12

Same assay, conditions: read-out: Activity (% enzyme activity by fluorescence relative to initial enzyme activity), compound at 17 μM, duplicates, 20 min pre-incubation

Row | SMILES | remaining activity at 17 µM [%]
19 | CC(C)=CCC/C(C)=C/Cc1c(O)ccc(C2CC(=O)c3c(O)cc(O)cc3O2)c1O (centres unmarked) [sanggenol A] | 10 to 80
20 | CC(C)=CCc1c(O)cc2occ(-c3ccc(O)cc3)c(=O)c2c1O [Wighteone] | > 80
21 | COc1c(-c2ccc(O)cc2)oc2cc(O)c(CC=C(C)C)c(O)c2c1=O [Topazolin] | > 80
22 | CC(C)=CCc1cc(-c2oc3cc(O)c(CC=C(C)C)c(O)c3c(=O)c2O)ccc1O [Glyasperin A] | > 80
23 | COc1ccc(-c2oc3c(CC=C(C)C)c(O)cc(O)c3c(=O)c2O[C@@H]2O[C@@H](C)[C@H](O)[C@@H](O)[C@H]2O[C@@H]2O[C@@H](C)[C@H](O)[C@@H](O)[C@H]2O)cc1 [2″-O-Rhamnosylicariside II] | 10 to 80
24 | COc1cc(O)c(CC=C(C)C)c2c1C(=O)[C@H](O)[C@@H](c1ccc(O)cc1)O2 (stereo in doubt) [3,7,4′-Trihydroxy-5-methoxy-8-prenylflavanone] | > 80
25 | C=C(C)C(O)Cc1c(O)c(CC=C(C)C)c2occ(-c3ccc(O)cc3)c(=O)c2c1O (centres unmarked) [Isoerysenegalensein E] | > 80
26 | CC(C)=CCc1cc([C@@H]2CC(=O)c3c(O)cc(O)c(CC=C(C)C)c3O2)cc(CC=C(C)C)c1O [5-Hydroxysophoranone] | > 80
27 | COc1ccc(-c2oc3c(CC=C(C)C)c(O)cc(O)c3c(=O)c2O[C@@H]2O[C@@H](C)[C@H](OC(C)=O)[C@@H](O[C@@H]3O[C@H](COC(C)=O)[C@@H](O)[C@H](O)[C@H]3O)[C@H]2O)cc1 [Korepimedoside A] | 10 to 80
28 | CC(C)=CCc1c(O[C@@H]2O[C@H](CO)[C@@H](O)[C@H](O)[C@H]2O)cc(O)c2c1O[C@H](c1ccc(O)cc1)[C@@H](O)C2=O [Phellamurin] | > 80
29 | COc1ccc([C@@H]2CC(=O)c3c(O)cc(O)cc3O2)cc1CC=C(C)C [4′-O-Methyllicoflavanone] | 10 to 80
30 | CC(C)=CCc1c(O)cc(O)c2c(=O)c3c(oc12)-c1ccc(O)cc1OC3C=C(C)C (centres unmarked) [Cyclomulberrin] | 10 to 80
31 | C=C(C)[C@H](CC=C(C)C)Cc1c(O)cc(OC)c2c1O[C@H](c1ccc(O)cc1O)CC2=O [Kurarinone] | > 80
32 | CC(C)=CC1Oc2cc(O)ccc2-c2oc3c4c(cc(O)c3c(=O)c21)OC(C)(C)C=C4 (centres unmarked) [Cyclomorusin] | > 80
33 | COc1c(-c2ccc(O)c(O)c2)oc2cc(O)c(CC=C(C)C)c(O)c2c1=O [6-Prenylquercetin-3-methylether] | > 80
34 | CC(C)=CCc1c(O[C@@H]2O[C@H](CO)[C@@H](O)[C@H](O)[C@H]2O)cc(O)c2c1O[C@H](c1ccc(O)cc1)CC2=O [Flavaprin] | > 80
35 | CC(C)=CCc1c(O)cc(O)c2c(=O)c(O[C@@H]3O[C@@H](C)[C@H](O)[C@@H](O)[C@H]3O[C@@H]3OC[C@@H](O)[C@H](O)[C@H]3O)c(-c3ccc(O)cc3)oc12 [Ikarisoside F] | 10 to 80
36 | COc1c(C2=Cc3ccc(O)cc3OC2)ccc(O)c1CC=C(C)C [Bidwillol A] | > 80
37 | COc1cc2oc(-c3ccc(O)cc3O)c(CC=C(C)C)c(=O)c2c(O)c1/C=C/C(C)C [Artocarpin] | > 80
38 | COc1cc(O)c(-c2coc3cc(O)ccc3c2=O)c(OC)c1CC=C(C)C [Licoricone] | > 80
39 | COc1ccc(-c2oc3c(CC=C(C)C)c(O[C@@H]4O[C@H](CO)[C@@H](O)[C@H](O)[C@H]4O)cc(O)c3c(=O)c2O)cc1 [Icariside I] | > 80
40 | CC(C)=CCc1c(O)ccc2c(=O)c(-c3ccc(O)cc3)coc12 [8-Prenyldaidzein] | > 80
41 | CC(C)=CCc1c(O)cc(O)c2c(=O)c(-c3ccc(O)cc3O)coc12 [2,3-dehydrokievitone] | 10 to 80
42 | COc1ccc([C@@H]2CC(=O)c3c(O)cc(O)c(CC=C(C)C)c3O2)cc1O (stereo in doubt) [5,7,3′-Trihydroxy-4′-methoxy-8-prenylflavanone] | > 80

Row | SMILES | remaining activity at 17 µM [%]
43 | COc1c(CC=C(C)C)c(O)cc2c1C[C@H](c1ccc(O)c(CC=C(C)C)c1O)CO2 [Licoricidin] | > 80
44 | CC(C)=CCc1c2c(c(O)c3c(=O)c(-c4ccc(O)cc4)coc13)C=CC(C)(C)O2 [warangalone] | 10 to 80
45 | COc1ccc(-c2oc3c(CC=C(C)C)c(O)cc(O)c3c(=O)c2O[C@@H]2O[C@@H](C)[C@H](O)[C@@H](O)[C@H]2O)cc1 [Baohuoside I] | 10 to 80
46 | C=C(C)[C@H](CC=C(C)C)Cc1c(O)cc(O)c2c1O[C@H](c1ccccc1O)CC2=O [Kushenol A] | > 80
47 | COc1cc(O)c(CC=C(C)C)c2oc(-c3ccc(O)cc3)c(O)c(=O)c12 [Sophoflavescenol] | > 80
48 | CC(C)=CCc1c(O)ccc([C@H]2COc3c(CC=C(C)C)c(O)cc(O)c3C2=O)c1O (stereo in doubt) [5,7,2′,4′-Tetrahydroxy-8,3′-di(gamma,gamma-dimethylallyl)-isoflavanone] | 10 to 80
49 | C=C(C)C(O)Cc1cc(-c2oc3cc(O)c(OC)c(O)c3c(=O)c2OC)cc(CCC(C)CO)c1O (centres unmarked) [Dodoviscin A] | > 80
50 | C=C(C)[C@H](CCC(C)(C)O)Cc1c(O)cc(OC)c2c1O[C@H](c1ccc(O)cc1O)[C@H](O)C2=O [Kushenol K] | > 80
51 | CC(C)=CCc1cc(-c2oc3cc(O)cc(O)c3c(=O)c2O)ccc1O [Isolicoflavonol] | 10 to 80
52 | CC(C)=CCC/C(C)=C/Cc1c(O)ccc(-c2oc3cc(O)cc(O)c3c(=O)c2CC=C(C)C)c1O [3′-Geranyl-3-prenyl-2′,4′,5,7-tetrahydroxyflavone] | 10 to 80
53 | C=C(C)C(O)Cc1cc(-c2coc3cc(O)c(CC=C(C)C)c(O)c3c2=O)ccc1O (centres unmarked) [Derrisisoflavone B] | > 80
54 | C=C(C)[C@H](CC=C(C)C)Cc1c(O)cc(O)c2c1OC(c1cc3c(cc1O)O[C@@H](c1ccc(O)cc1)[C@@H]3c1cc(O)cc(O)c1)CC2=O (some centres unmarked) [Sophoraflavanone I] | 10 to 80
55 | O=C1CC(c2ccc(O)cc2O)Oc2cc(O)cc(O)c21 (centres unmarked) [Steppogenin] | > 80
56 | CC(C)=CCc1c2c(c(O)c3c(=O)c(-c4ccc(O)c(O)c4)coc13)C=CC(C)(C)O2 [Auriculasin] | > 80
57 | CC(C)=CCc1c(O)cc2occ(-c3ccc4c(c3)C=CC(C)(C)O4)c(=O)c2c1O [Isochandalone] | > 80
58 | COc1cc2c(cc1CC=C(C)C)C(=O)C[C@@H](c1ccc(O)cc1)O2 [Bavachinin] | > 80
59 | CC(C)=CCC/C(C)=C/Cc1cc(C2CC(=O)c3c(O)cc(O)cc3O2)c(O)cc1O (centres unmarked) [kuwanon E] | 10 to 80
60 | COc1ccc(-c2oc3c(CC=C(C)C)c(O[C@@H]4O[C@H](CO)[C@@H](O)[C@H](O)[C@H]4O)cc(O)c3c(=O)c2O[C@@H]2O[C@@H](C)[C@H](O)[C@@H](O[C@@H]3O[C@H](CO)[C@@H](O)[C@H](O)[C@H]3O)[C@H]2O)cc1 [Epimedin A1] | > 80
61 | CC(C)=CCc1cc(-c2cc(=O)c3c(O)cc(O)c(CC=C(C)C)c3o2)cc(O)c1O [Epimedokoreanin B] | > 80
62 | CC(C)=CCc1c(O)cc(O)c2c1O[C@H](c1ccc(O)cc1O)CC2=O [Leachianone G] | > 80
63 | CC(C)=CCc1c(O)cc2oc(-c3ccc(O)cc3)c(O)c(=O)c2c1O [Licoflavonol] | > 80
64 | COc1ccc(-c2oc3c(CC=C(C)C)c(O[C@@H]4O[C@H](CO)[C@@H](O)[C@H](O)[C@H]4O)cc(O)c3c(=O)c2O[C@@H]2O[C@@H](C)[C@H](OC(C)=O)[C@@H](O)[C@H]2O[C@@H]2O[C@H](CO)[C@@H](O)[C@H](OC(C)=O)[C@H]2O)cc1 [Caohuoside E] | > 80
65 | CC(C)=CCc1cc(-c2cc(=O)c3c(O)cc(O)c(CC=C(C)C)c3o2)ccc1O [8,3′-Diprenylapigenin] | < 10
